Measurements reported in patent publication US20220378923A1, “BET DEGRADER” (KYOWA KIRIN CO., LTD., priority 2019, published 2022).
pIC50: −log10 of the molar value. Like-named read-outs stand apart in the source and are kept apart here.

Legend:
[1] = test system: MYC mRNA expression in SU-DHL-4 cells; experiment: Suppressive effect on MYC mRNA expression (Test Example 2); assay type: cell-based, human; conditions: test compound 100 nmol/L, 6 hours, qRT-PCR corrected by ACTB, GAPDH; for inhibition at 0.1 µM: Homo sapiens, HPRT1, read-out: Suppression Rate of MYC mRNA Expression (%); for Suppression Rate of MYC mRNA Expression (%): HPRT1
Method: The cells were passaged twice a week at a volume of 20-40 mL so as to maintain a cell concentration of 1×10^6 cells/mL or less. The cultured SU-DHL-4 cells were seeded at 6×10^5 cells/well in a transparent 6-well plate (Code No. 140675, Thermo Fisher Scientific). After seeding, the cells were precultured at 37° C. in a carbon dioxide gas incubator for 18 to 25 hours. […] At this time, the final concentration of DMSO was adjusted to be 0.1 vol %. After adding the test compound, the cells were cultured at 37° C. in a carbon dioxide gas incubator for 6 hours. Then, the cells were collected by centrifugation and used for extraction of mRNA. mRNA extraction from cells was performed using Maxwell® 16 LEV simplyRNA Purification Kits (Code No. AS1270, Promega). The mRNA recovery protocol was performed according to the manufacturer's recommended protocol attached to the kit. […] The cDNA conversion was performed, according to the manufacturer's recommended protocol attached to the kit, in 0.020 mL of the reaction solution, and GeneAmp® PCR System 9700 (Applied Biosystems) was used. The cDNA-converted sample was diluted 10-fold by adding 0.180 mL of RNase Free Water (Code No. 10977-023, Thermo Fisher Scientific) and used for quantitative real-time polymerase chain reaction (qRT-PCR). For the calibration curve of qRT-PCR, 0.08 mL of RNase Free Water was added to a cDNA sample using DMSO as a test compound for 5-fold dilution. Further, two 5-fold dilutions were prepared stepwise, and these three samples were used as the calibration curve samples. The following reagents were used for qRT-PCR: TaqMan Gene Expression Assays, Inventoried (Primer probe: Code No. 4331182, Thermo Fisher Scientific, Assay ID: (i) MYC: Hs00153408_m1, (ii) ACTB: Hs01060665_g1, (iii) GAPDH: Hs04420697_g1, (iv) HPRT1: […] Universal PCR Master Mix, no AmpEraseR UNG (Master Mix: Code No. 4367846, Thermo Fisher Scientific). Primer probe (0.001 mL), Master Mix (0.010 mL), water (0.004 mL) and the diluted cDNA sample (0.005 mL) were mixed, and qRT-PCR analysis was performed. For qRT-PCR analysis, QuantStudio 7 Flex (Thermo Fisher Scientific) or 7500 Fast Real-Time PCR (Applied Biosystems) was used to measure in Fast mode and analyze. […] Corrected MYC expression=A/B • A: MYC expression level • B: Geometric mean of expression levels of ACTB, GAPDH and HPRT1 Using the corrected values, the suppression rate of MYC expression for the wells to which the test compound was not added was calculated by the following formula. […] Corrected MYC expression level in a well containing test compound • D: Corrected MYC expression level in a well to which test compound was not added

SU-DHL-4 cells = experiment: Inhibitory effect on cell viability in SU-DHL-4 cell line (Test Example 1); assay type: cell-based, human; conditions: 72 hours; for pIC50: SU-DHL-4 (wild type) cells, calculated using the measurement results of test example 1, read-out: SU-DHL-4 WT IC50; for IC90: SU-DHL-4 cells, Cell Counting Kit-8, concentration showing 90% inhibition of cell viability, read-out: SU-DHL-4 Cell Viability Inhibition Rate IC90
How it was run: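 SU-DHL-4 cells were grown at 37° C. under 5% CO2 in RPMI1640 with 10 vol % heat-inactivated FBS plus penicillin/streptomycin, seeded and precultured for 18 to 25 hours, then exposed to test compound at 0.1 vol % DMSO for 72 hours. Viability was read with Cell Counting Kit-8 by absorbance at 450 nm.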

Structure (SMILES)	inhibition at 0.1 µM [1] [%]	pIC50 (SU-DHL-4 cells; Homo sapiens)	Suppression Rate of MYC mRNA Expression (%) [1] [%]	pIC50 (SU-DHL-4 cells)	IC90 (SU-DHL-4 cells) [nM]
CCC(=O)N1c2ccccc2[C@H](Nc2ccc(C(=O)NCc3cn(-c4ccc(N[C@@H]5C[C@H](C)N(C(=O)CC)c6ccccc65)cc4)nn3)cc2)C[C@@H]1C [Compound 3a, 4-{[(2S,4R)-2-Methyl-1-propionyl-1,2,3,4-tetrahydroquinolin-4-yl]amino}-N-{[1-(4-{[(2S,4R)-2-methyl-1-propionyl-1,2,3,4-tetrahydroquinolin-4-yl]amino}phenyl)-1H-1,2,3-triazol-4-yl]methyl}benzamide]	98.1	10.60			
CCC(=O)N1c2ccccc2[C@H](Nc2ccc(NC(=O)CCSc3ccc(N[C@@H]4C[C@H](C)N(C(=O)CC)c5ccccc54)cc3)cc2)C[C@@H]1C (relative stereo) [Compound 4e, N-(4-{[(2S*,4R*)-2-Methyl-1-propionyl-1,2,3,4-tetrahydroquinolin-4-yl]amino}phenyl)-3-[(4-{[(2S,4R)-2-methyl-1-propionyl-1,2,3,4-tetrahydroquinolin-4-yl]amino}phenyl)thio]propanamide]	98.4	9.52			
CCC(=O)N1c2ccccc2[C@H](Nc2ccc(NC(=O)C3CN(C(=O)C4CCN(Cc5cc(O)cc(-c6c(C)noc6C)c5)CC4)C3)cc2)C[C@@H]1C [Compound 12b, 1-(1-(3-(3,5-Dimethylisoxazol-4-yl)-5-hydroxybenzyl)piperidine-4-carbonyl)-N-(4-(((2S,4R)-2-methyl-1-propionyl-1,2,3,4-tetrahydroquinolin-4-yl)amino)phenyl)azetidine-3-carboxamide]	97.8	8.55			
CCC(=O)N1c2ccccc2[C@H](Nc2ccc(C(=O)NCCCNC(=O)c3ccc(C4=N[C@@H](CC(=O)OCCCOC)c5nnc(C)n5-c5sc(C)c(C)c54)cc3)cc2)C[C@@H]1C [Compound 13h, 3-Methoxypropyl 2-((S)-2,3,9-trimethyl-4-(4-((3-(4-(((2S,4R)-2-methyl-1-propionyl-1,2,3,4-tetrahydroquinolin-4-yl)amino)benzamide)propyl)carbamoyl)phenyl)-6H-thieno[3,2-f][1,2,4]triazolo[4,3-a][1,4]diazepin-6-yl)acetate]			97.4	9.52	0.34
Cc1sc2c(c1C)C(c1ccc(C(=O)N3CCC(NC(=O)c4ccc(C5=N[C@@H](CC(=O)OC(C)(C)C)c6nnc(C)n6-c6sc(C)c(C)c65)cc4)CC3)cc1)=NCc1nnc(C)n1-2 [Compound 14p, tert-Butyl (S)-2-(2,3,9-trimethyl-4-(4-((1-(4-(2,3,9-trimethyl-6H-thieno[3,2-f][1,2,4]triazolo[4,3-a][1,4]diazepin-4-yl)benzoyl)piperidin-4-yl)carbamoyl)phenyl)-6H-thieno[3,2-f][1,2,4]triazolo[4,3-a][1,4]diazepin-6-yl)acetate]	97.6	9.00			
CCC(=O)N1c2ccccc2[C@H](Nc2ccc(C(=O)NCCNS(=O)(=O)c3ccc(N[C@@H]4C[C@H](C)N(C(=O)CC)c5ccccc54)cc3)cc2)C[C@@H]1C [Compound 4d, 4-{[(2S,4R)-2-Methyl-1-propionyl-1,2,3,4-tetrahydroquinolin-4-yl]amino}-N-{2-[(4-{[(2S,4R)-2-methyl-1-propionyl-1,2,3,4-tetrahydroquinolin-4-yl]amino}phenyl)sulfonamide]ethyl}benzamide]			98.3	8.38	13
CCC(=O)N1c2ccccc2[C@H](Nc2ccc(NC(=O)C#CCNC(=O)C3CCC(N[C@@H]4C[C@H](C)N(C(=O)CC)c5ccccc54)CC3)cc2)C[C@@H]1C (relative stereo) [Compound 8g, (1R,4r)-4-(((2S*,4R*)-2-Methyl-1-propionyl-1,2,3,4-tetrahydroquinolin-4-yl)amino)-N-(4-((4-(((2S,4R)-2-methyl-1-propionyl-1,2,3,4-tetrahydroquinolin-4-yl)amino)phenyl)amino)-4-oxobut-2-yn-1-yl)cyclohexane-1-carboxamide]			96.6	11.10	0.01
CCC(=O)N1c2ccccc2[C@H](Nc2ccc(-c3cnn(CC(=O)Nc4ccc(C5=NCc6nnc(C)n6-c6sc(C)c(C)c65)cc4)c3)cc2)C[C@@H]1C [Compound 14a, 2-(4-(4-(((2S,4R)-2-Methyl-1-propionyl-1,2,3,4-tetrahydroquinolin-4-yl)amino)phenyl)-1H-pyrazol-1-yl)-N-(4-(2,3,9-trimethyl-6H-thieno[3,2-f][1,2,4]triazolo[4,3-a][1,4]diazepin-4-yl)phenyl)acetamide]	97.1	10.77			
CCC(=O)N1c2ccccc2[C@H](Nc2ccc(NC(=O)CCCC(=O)Nc3ccc(N[C@@H]4C[C@H](C)N(C(=O)CC)c5ccccc54)nc3)cc2)C[C@@H]1C [Compound 10k, N^1-(4-(((2S,4R)-2-Methyl-1-propionyl-1,2,3,4-tetrahydroquinolin-4-yl)amino)phenyl)-N^5-(6-(((2S,4R)-2-methyl-1-propionyl-1,2,3,4-tetrahydroquinolin-4-yl)amino)pyridin-3-yl)glutaramide]	97	9.68			
Cc1sc2c(c1C)C(c1ccc(C(=O)NCc3cn(-c4ccc(C5=N[C@@H](CC(=O)OC(C)(C)C)c6nnc(C)n6-c6sc(C)c(C)c65)cc4)nn3)cc1)=N[C@@H](CC(=O)OC(C)(C)C)c1nnc(C)n1-2 [Compound 3b, tert-Butyl 2-[(S)-4-(4-{4-[(4-{(S)-6-[2-(tert-butoxy)-2-oxoethyl]-2,3,9-trimethyl-6H-thieno[3,2-f][1,2,4]triazolo[4,3-a][1,4]diazepin-4-yl}benzamide)methyl]-1H-1,2,3-triazol-1-yl}phenyl)-2,3,9-trimethyl-6H-thieno[3,2-f][1,2,4]triazolo[4,3-a][1,4]diazepin-6-yl]acetate]					0.18
CCC(=O)N1c2ccccc2[C@H](Nc2ccc(NC(=O)CCCC(=O)Nc3ccc(N[C@@H]4C[C@H](C)N(C(=O)CC)c5ccccc54)cc3)cc2)C[C@@H]1C [Compound 6k, N^1,N^5-Bis(4-(((2S,4R)-2-methyl-1-propionyl-1,2,3,4-tetrahydroquinolin-4-yl)amino)phenyl)glutaramide]	97				
CCC(=O)N1c2ccccc2[C@H](Nc2ccc(C(=O)NCCCNC(=O)c3ccc(C4=N[C@@H](CC(=O)OC(C)(C)C)c5nnc(C)n5-c5sc(C)c(C)c54)cc3)cc2)C[C@@H]1C [Compound 1h, tert-Butyl 2-[(S)-2,3,9-trimethyl-4-(4-{[3-(4-{[(2S,4R)-2-methyl-1-propionyl-1,2,3,4-tetrahydroquinolin-4-yl]amino}benzamide)propyl]carbamoyl}phenyl)-6H-thieno[3,2-f][1,2,4]triazolo[4,3-a][1,4]diazepin-6-yl]acetate]					0.27
CCC(=O)N1c2ccccc2[C@H](Nc2ccc(-n3cc(CCNC(=O)[C@H]4CC[C@H](N[C@@H]5C[C@H](C)N(C(=O)CC)c6ccccc65)CC4)nn3)cc2)C[C@@H]1C [Compound 8a, (1R,4r)-4-(((2S,4R)-2-Methyl-1-propionyl-1,2,3,4-tetrahydroquinolin-4-yl)amino)-N-(2-(1-(4-(((2S,4R)-2-methyl-1-propionyl-1,2,3,4-tetrahydroquinolin-4-yl)amino)phenyl)-1H-1,2,3-triazol-4-yl)ethyl)cyclohexane-1-carboxamide]					0.87
